Each structure is given as a SMILES string.

For assay [1], the system named is 2D tissue (planarly cultured iPS cardiomyocytes and normal human cardiac fibroblasts). The assay is described as follows: Ca2+ transient waveform change on addition of isoproterenol, 2D tissue. The assay is classed as cell-based. The conditions noted are these: increasing isoproterenol concentration (nM). On the procedure:
(§1) After a myocardial tissue after being cultured for seven days was dyed, Ca^2+ transient measurement was performed from the viewpoint of checking a function of myocardial contraction. The measurement was performed for a myocardial tissue after culture (hereinafter described as “application tissue”) illustrated in FIG. 29 in this example and a planarly cultured tissue (hereinafter described as “2D tissue”) serving as a comparative example. In the myocardial tissue in the comparative example, iPS cardiomyocytes (iCell Cardiomyocyte 2) and normal human cardiac fibroblast were set to 4:1 in a number ratio. In the myocardial tissue in the comparative example, 50000 cells per one well were seeded and planarly cultured in the same culture medium as the culture medium of the application tissue obtained by the same application device as the application device in the second embodiment. A result of the Ca^2+ transient measurement is illustrated in the following Table 1.
(§2) Subsequently, a change in a Ca^2+ transient waveform at the time when isoproterenol that is a β adrenergic receptor agonist was added was evaluated. In general, the isoproterenol raises the heart rate and the contraction force of a cardiomyocyte. The contraction force of the cardiomyocyte has a correlation with the fluorescence intensity (AMP) of the Ca^2+ transient measurement. […]

Assay [2] has as its system application tissue (myocardial tissue of iPS cardiomyocytes and normal human cardiac fibroblasts). The assay is described as follows: Ca2+ transient waveform change on addition of isoproterenol, application tissue. The note with it: increasing isoproterenol concentration (nM). It counts as cell-based. Here is the method: as §1, §2

With `CC(C)NCC(O)c1ccc(O)c(O)c1` (stereo not shown) [isoproterenol], the “change in BPM when isoproterenol is added” value in assay [1] (FIG. 31) and in assay [2] (FIG. 31) was “rose according to an increase in the isoproterenol concentration” throughout. For the same compound, the “change in AMP (fluorescence intensity) when isoproterenol is added” value in assay [1] (FIG. 32) was “did not rise much”; in assay [2] (FIG. 32), “rose depending on the concentration of the isoproterenol”.

For the origin of these results see patent US20260078346A1, “Cell Tissue Production Method, Application Method and Application Device” (NTN Corporation, priority 2022, published 2026).
